In patent publication US9611261B2, “Perfluorinated cyclopropyl fused 1,3-oxazin-2-amine compounds as beta-secretase inhibitors and methods of use” (AMGEN INC., priority 2013, dated 2017):

What was measured:
[1] = biological target: Beta Secretase enzyme (BACE) (Homo sapiens (Human), UniProt P56817); experiment: In vitro enzymatic BACE FRET assay; assay type: biochemical; conditions: read-out: BACE1 Enzyme assay IC50
Experimental: In Vitro Enzymatic BACE FRET (Fluorescence Resonance Energy Transfer) Assay (Enzyme Assay Data in the Example Table I)
The assay buffer used in this screen is 0.05 M acetate, pH 4.2, 10% DMSO final, 100 uM genapol (which is a nonionic detergent, below its Critical Micelle Concentration). […] This assay is effectively started by the addition of FRET substrate (50 nM) and the combination is incubated for one hour. The FRET assay is terminated with by addition of Tris buffer, which raises the pH to neutrality, and the fluorescence is determined. The FRET substrate is a peptide with commercially available fluorophore and quencher, on opposite sides of the BACE cleavage site.

[2] = biological target: Recombinant Cat D (Cathepsin D) (Homo sapiens (Human), UniProt P07339); experiment: In vitro enzymatic Cathepsin D (Cat D) FRET assay; assay type: biochemical; conditions: read-out: CatD IC50
Experimental: Recombinant Cat D was expressed in CHO cells. The assay buffer for CathepsinD is 0.05 M citrate pH 3.5, 10% DMSO final, 5 mM CHAPS. […] The assays are effectively started by the addition of different FRET substrates (20 nM for Cat D) and the combination is incubated for one hour. The FRET assay is terminated with by addition of Tris buffer, which raises the pH to neutrality, and the fluorescence is determined. The FRET substrate is a peptide with commercially available fluorophore and quencher, on opposite sides of the BACE cleavage site. […] Proteolytic cleavage of the FRET substrate releases quenching of fluorescence (Cat D excitation 500 nm and emission 580 nm).

Aβ in lumbar CSF = conditions: healthy volunteers, cited from earlier work

Recombinant Cat D (Cathepsin D), sequence (P07339 65-412, species assumed): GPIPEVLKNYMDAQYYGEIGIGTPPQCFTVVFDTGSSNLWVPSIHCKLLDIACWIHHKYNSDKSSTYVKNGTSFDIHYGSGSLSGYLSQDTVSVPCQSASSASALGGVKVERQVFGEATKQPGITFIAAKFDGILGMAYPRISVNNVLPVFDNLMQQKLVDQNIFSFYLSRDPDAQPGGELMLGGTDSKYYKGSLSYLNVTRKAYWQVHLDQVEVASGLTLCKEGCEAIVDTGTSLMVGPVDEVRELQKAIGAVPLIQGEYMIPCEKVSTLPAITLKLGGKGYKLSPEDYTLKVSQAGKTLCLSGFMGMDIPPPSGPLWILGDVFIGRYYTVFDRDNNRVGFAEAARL
Beta Secretase enzyme (BACE), sequence (P56817 46-501, species assumed): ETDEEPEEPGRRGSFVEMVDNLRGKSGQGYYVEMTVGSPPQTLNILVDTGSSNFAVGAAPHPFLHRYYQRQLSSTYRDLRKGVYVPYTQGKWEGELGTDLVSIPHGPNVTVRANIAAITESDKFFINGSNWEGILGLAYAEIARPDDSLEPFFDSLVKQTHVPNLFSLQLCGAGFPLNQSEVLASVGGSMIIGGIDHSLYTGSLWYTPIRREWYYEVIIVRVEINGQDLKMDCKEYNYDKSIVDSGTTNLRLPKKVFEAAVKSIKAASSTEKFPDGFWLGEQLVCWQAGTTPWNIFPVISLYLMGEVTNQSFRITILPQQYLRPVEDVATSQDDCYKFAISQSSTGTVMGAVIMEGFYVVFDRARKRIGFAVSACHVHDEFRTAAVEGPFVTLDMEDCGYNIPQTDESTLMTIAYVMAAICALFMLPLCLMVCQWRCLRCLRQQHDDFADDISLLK

N#Cc1ccc2c(c1)OCC[C@@H]2Nc1ccc(F)c([C@@]2(C(F)F)N=C(N)O[C@@H]3C[C@@H]32)c1 (mixture of isomers) [Example 383, (R)-4-((3-((1R,5S,6R)-3-amino-5-(difluoromethyl)-2-oxa-4-azabicyclo[4.1.0]hept-3-en-5-yl)-4-fluorophenyl)amino)chroman-7-carbonitrile and (S)-4-((3-((1R,5S,6R)-3-amino-5-(difluoromethyl)-2-oxa-4-azabicyclo[4.1.0]hept-3-en-5-yl)-4-fluorophenyl)amino)chroman-7-carbonitrile]
IC50 [1]: 0.968 µM
IC50 [2]: 206 µM

N#Cc1cnc2c(c1)CCC[C@@H]2Nc1ccc(F)c([C@@]2(C(F)F)N=C(N)O[C@@H]3C[C@@H]32)c1 (mixture of isomers) [Example 403, (R)-8-((3-((1R,5S,6R)-3-amino-5-(difluoromethyl)-2-oxa-4-azabicyclo[4.1.0]hept-3-en-5-yl)-4-fluorophenyl)amino)-5,6,7,8-tetrahydroquinoline-3-carbonitrile and (S)-8-((3-((1R,5S,6R)-3-amino-5-(difluoromethyl)-2-oxa-4-azabicyclo[4.1.0]hept-3-en-5-yl)-4-fluorophenyl)amino)-5,6,7,8-tetrahydroquinoline-3-carbonitrile]
IC50 [1]: 2.85 µM
IC50 [2]: 469 µM

C#CCOc1cnc(C(=O)Nc2cc(F)c(Cl)c([C@]3(CF)N=C(N)O[C@H]4C[C@H]43)c2)cn1 (racemic) [Example 140, N-(3-((1R/S,5S/R,6R/S)-3-amino-5-(fluoromethyl)-2-oxa-4-azabicyclo[4.1.0]hept-3-en-5-yl)-4-chloro-5-fluorophenyl)-5-(prop-2-yn-1-yloxy)pyrazine-2-carboxamide]
IC50 [1]: 0.006 µM
IC50 [2]: 86.9 µM

NC1=N[C@@](c2cc(NC(=O)c3cnc(Cl)cn3)ccc2F)(C(F)F)[C@H]2C[C@H]2O1 [Example 261, N-(3-((1R,5S,6R)-3-amino-5-(difluoromethyl)-2-oxa-4-azabicyclo[4.1.0]hept-3-en-5-yl)-4-fluorophenyl)-5-chloropyrazine-2-carboxamide]
IC50 [1]: 0.037 µM
IC50 [2]: 444 µM

COc1cc(Cl)cnc1C(=O)Nc1ccc(Cl)c([C@@]2(CF)N=C(N)O[C@@H]3C[C@@H]32)c1 [Example 297, N-(3-((1R,5S,6R)-3-amino-5-(fluoromethyl)-2-oxa-4-azabicyclo[4.1.0]hept-3-en-5-yl)-4-chlorophenyl)-5-chloro-3-methoxypicolinamide]
IC50 [2]: 835 µM

C[C@@]1(c2cc(NC(=O)c3ccc(Cl)cn3)cnc2F)N=C(N)O[C@H]2C[C@H]21 [Example 333]
IC50 [1]: 0.13 µM
IC50 [2]: 816 µM

COc1cnc2c(Nc3cc(Cl)c(F)c([C@@]4(CF)N=C(N)O[C@@H]5C[C@@H]54)c3)nccc2n1 [Example 356, (1R,5S,6R)-5-(3-chloro-2-fluoro-5-((2-methoxypyrido[3,4-b]pyrazin-5-yl)amino)phenyl)-5-(fluoromethyl)-2-oxa-4-azabicyclo[4.1.0]hept-3-en-3-amine]
IC50 [1]: 0.0659 µM
IC50 [2]: 725 µM

N#Cc1cnc2c(c1)CC[C@@H]2Nc1ccc(F)c([C@@]2(C(F)F)N=C(N)O[C@@H]3C[C@@H]32)c1 [Example 404]
IC50 [1]: 0.291 µM

C[C@@]1(c2cc(-c3cncnc3)c(F)cc2F)CCSC(N)=N1 [LY2811376, (S)-4-(2,4-difluoro-5-pyrimidin-5-yl-phenyl)-4-methyl-5,6-dihydro-4H-[1,3]thiazin-2-ylamine]
Aβ reductions in lumbar CSF (Aβ in lumbar CSF; after oral dosing of 30 or 90 mg): Prominent and long-lasting Aβ reductions
safety and tolerability (Aβ in lumbar CSF; Ph I): safe and well tolerated
